Experimental data from US12285455B2, “Controlled-release and stratified cyclodextrin inclusion complex vehicles” (CZAP RESEARCH AND DEVELOPMENT, LLC., priority 2016, dated 2025).

Test system: myelofibrosis
Assay: treatment of myelofibrosis, case history
Assay type: in vivo, human
Conditions: following initiation of treatment; approximately every 10 days before treatment
Procedure: This example illustrates the treatment of symptoms associated with myelofibrosis. A patient suffering from myelofibrosis was treated with a quercetin CD formulation. The formulation was prepared from a powder of quercetin (Glanbia Nutritionals) formed as an inclusion complex with gamma cyclodextrin, dried and mixed with amylase powder. At the initiation of quercetin CD treatment, the patient was in need of blood transfusions approximately every 10 days. Following initiation of the quercetin CD treatment, the patient was able to go 20 days between transfusions.

O=c1c(O)c(-c2ccc(O)c(O)c2)oc2cc(O)cc(O)c12 [quercetin]
interval between blood transfusions: did not get this result
